Experimental data taken from patent US20250120986A1, “STEROL THERAPY” (UCL BUSINESS LTD, priority 2021, published 2025).

How the values were obtained:
H9C2 cell line = experiment: Western blot of ERK2 phosphorylation after adrenaline treatment (adrenergic signalling); format: cell-based, rat; conditions: for ERK2 phosphorylation after adrenaline treatment: H9C2 depleted with MßCD, then incubated with sterol
Description: (§1) Cells were incubated in 5 mM solution MßCD in DMEM for 30 minutes. Before treatment cells were washed twice with prewarmed PBS to remove remaining FBS and prevent contamination of exogenous cholesterol.
After MßCD treatment cells were washed twice with prewarmed PBS to remove remaining MßCD solution and then incubated for 4 hours with either (i) complex Cholesterol—MßCD or (ii) Sitosterol—MßCD. These were prepared according to the protocol reported by Klein et al. (Biochemistry 1995; 34:13784). Sterol complexes were diluted ×100 in DMEM to produce final concentrations of 68 microM cholesterol, 68 microM sitosterol and 700 microM MßCD.
Control, MßCD or MßCD/sterol-treated cells were incubated for 10 minutes with adrenaline or noradrenaline solution in DMEM (final concentration 10^−7M).
Cells were washed and lysed on plates with RIPA buffer supplemented by protease and phosphatase inhibitors on ice for 30 minutes. Lysates were treated as described above for sterol determination. Protein concentration was determined by BCA assay. Western blot samples were prepared by mixing the lysates with 5× loading buffer (Tris HCl pH 6.8 312.5 mM, SDS 10%, bME 12.5%, glycerol 47.5%, bromophenol blue 0.01%). 2 mcg of protein/sample was separated by electrophoresis on 10% SDS-PAGE and transferred to a PVDF membrane. Membrane was blocked with 5% BSA in TBST for 1 hour at room temperature with gentle agitation and incubated with primary anti-pERK or anti-PFK antibodies overnight at 4° C. Both primary antibodies were diluted 2000 times in 5% BSA in TBST. […]
Chemiluminescent detection was performed using the Clarity TM Western ECL Substrate (Bio-Rad). Band intensity was analysed by Image Studio Lite ver5.2. Results are calculated as a ratio of intensities of pERK2 band to PFK band for each sample and normalized as a percentage from the average of samples treated with adrenaline only.

H9C2 cardiomyocyte cells = experiment: Sterol concentration in H9C2 cells after MßCD depletion (Amplex Red / BCA); format: cell-based, rat; conditions: sterol-MßCD complex, 68 microM sterol, 4 hours
Description: Rat embryonic cardiomyocyte H9C2 cells were cultured in high-glucose DMEM (Gibco 41965-039) supplemented with 10% fetal bovine serum (FBS, Gibco 10270-106) and 100 U/ml of penicillin/streptomycin at 37° C. in a humidified atmosphere of 5% CO2. Cells were split every 2-3 days.
Two days prior to experimentation, cells were seeded in 6 well plates (Corning N-3516) 3×10^5 cells/well. Before any treatment. cells were washed twice with prewarmed PBS.
as §1
After MßCD treatment cells were washed twice with prewarmed PBS to remove remaining MßCD solution and then incubated for 4 hours with either (i) complex Cholesterol—MßCD or (ii) Sitosterol—MßCD. These were prepared according to the protocol reported by Klein et al. (Biochemistry 1995; 34:13784). […]
After incubation MßCD-treated, MßCD/Sterol treated, and untreated (control) cells were washed twice with ice-cold PBS and lysed with phosphate buffer (0.1 M potassium phosphate pH 7.4, 50 mM NaCl, 5 mM cholic acid, 0.1% Triton X-100, protease inhibitors) on ice. […] Protein and sterol concentrations were measured by BCA and Cholesterol Amplex Red assays, respectively. […]

[1] = test system: sham-operated rats and septic rats; experiment: Catecholamine responsiveness study (dobutamine / noradrenaline challenge) in rat faecal peritonitis model; format: in vivo; conditions: 10 minutes after commencement of infusion
Description: II. Sepsis was induced in awake, instrumented male Wistar rats (316±23.5 g) as described above but using 7 microL of faecal slurry/g body weight. Rats were allocated into sham-operated (control), sepsis and sepsis+cholesterol groups.
At 6 h post-induction of sepsis, the sepsis+cholesterol group received an i.v. infusion of a cholesterol-loaded formulation, either liposomal- or bovine HDL (10 mg cholesterol/300 g bw), which was continued over 15 hours.
At 21 h, catecholamine responsiveness was tested by consecutively administering, under isoflurane anaesthesia, the beta-adrenergic agonist, dobutamine (10 μg/kg/min for 10 min) and then the predominant alpha-adrenergic agonist, norepinephrine (0.5 μg/kg/min for 10 min) with a 30 min washout period in between.
Blood pressure (measured continuously from an indwelling carotid line), heart rate and stroke volume (measured by echocardiography) were measured before and at 10 minutes after each drug was infused.

H9C2 cardiomyocytes = experiment: ERK1 and ERK2 phosphorylation after dobutamine treatment (adrenergic signalling); format: cell-based, rat; conditions: H9C2 treated with MßCD alone
Description: Adrenergic signalling was evaluated in the H9C2 cardiomyocytes by the increase of ERK1 and ERK2 phosphorylation after dobutamine treatment.

[2] = septic rats, 21 h post-faecal peritonitis

Molecule: CC(C)CCC[C@@H](C)[C@H]1CC[C@H]2[C@@H]3CC=C4C[C@@H](O)CC[C@]4(C)[C@H]3CC[C@]12C [cholesterol, Cholesterol]
- ERK2 phosphorylation after adrenaline treatment (H9C2 cell line): 2 × normal
- cellular sterol content after MßCD depletion (H9C2 cardiomyocyte cells): Sterol content was restored

Molecule: CC(CCc1ccc(O)cc1)NCCc1ccc(O)c(O)c1 (stereo not shown) [dobutamine]
- stroke volume response to the agonist [1, 2]: non-responsive
- stroke volume response to the agonist ([1]; sham animals): significant rises

Molecule: NC[C@H](O)c1ccc(O)c(O)c1 [noradrenaline]
- blood pressure response to the agonist [1, 2]: non-responsive
- blood pressure response to the agonist ([1]; sham animals): significant rises

Molecule: CC[C@H](CC[C@@H](C)[C@H]1CC[C@H]2[C@@H]3CC=C4C[C@@H](O)CC[C@]4(C)[C@H]3CC[C@]12C)C(C)C [sitosterol, Sitosterol]
- ERK2 phosphorylation after adrenaline treatment (H9C2 cell line): 2 × normal
- cellular sterol content after MßCD depletion (H9C2 cardiomyocyte cells): Sterol content was restored

Molecule: Methyl-β-cyclodextrin [MßCD]
- ERK2 phosphorylation after adrenaline treatment (in words) (H9C2 cell line; H9C2, 5 mM MßCD for 30 minutes): decreased ERK2 phosphorylation
- phosphorylation of ERK1 and ERK2 after dobutamine treatment (H9C2 cardiomyocytes): decreased phosphorylation of both ERK1 and ERK2
